According to US8034796B2, “Glucosamine and glucosamine/anti-inflammatory mutual prodrugs, compositions, and methods” (The University of Georgia Research Foundation, Inc., priority 2004, dated 2011):
Where two headings read alike, the source gives them in different places.

Experiments:
[1] = cited from earlier work
[2] = literature; cited from earlier work
[3] = cited from earlier work; remark: listed apart in the source
[4] = format: in vitro ADME, snake
Procedure: In vitro transport (diffusion) was evaluated by Franz cell diffusion experiments using shed snakeskin. Shed snakeskin is widely recognized as a sufficient model membrane to human skin for preliminary permeability studies due to the similarity in its composition to the human stratum corneum.
The shed snakeskin was hydrated in 0.1% aqueous sodium azide solution for 48 hours at room temperature. The skins were mounted to three Franz receptor cells filled with 0.1 M pH7 phosphate buffer. The receptor solution was maintained at 37° C. and stirred with a magnetic stirrer. The donor cells were clamped to each receptor cell, with the skin mounted between the receptor and donor cells, and the donor cells were filled with 100 milligrams (mg) each of glucosamine HCl (e.g., cell 1), N-acetyl glucosamine (e.g., cell 2), and glucosamine pentaacetyl (e.g., cell 3) in a 1 milliliter (ml) DMSO solution. The skin surface exposed to diffusion was 2.54 cm^2 (1.8 cm diameter) and the receptor cell volume was 6 cm^3. The system was allowed to equilibrate for two hours before samples were taken.
Twenty microliter (μl) samples of receptor solution were taken at 5, 10, 20, 40, 80, 160, and 240 minute intervals and replaced with fresh buffer. A ten μl aliquot of each sample was analyzed by high performance liquid chromatography with pulsed electrochemical detection.

[5] = Oil/water partition coefficient, n-hexane/phosphate buffer; format: physicochemical; details: 37° C., 24 hours
Procedure: The oil/water partition coefficient for NAG was determined using n-hexane/phosphate buffer (pH 5.5 6, 6.73, and 7.4, 0.1 M) and n-hexane/water (Bemacki et al., J. Supramolecular Structure, 7:235-250 (1977)). In each case 5 ml of n-hexane was mixed with aqueous solutions containing NAG and shaken at 37° C. for 24 hours. The mixture was afterwards centrifuged and the organic and aqueous phases separated. The NAG concentration in the filtrates was determined by HPAE-PAD after the appropriate dilution.

[6] = In-vitro membrane permeation of NAG through shed snakeskin (Franz cell; enhancers, DMSO, ethanol/buffer); format: in vitro ADME, snake
From the text: Shed snakeskins were used as a model membrane for permeation studies using the NAG suspensions in known membrane permeation enhancers; ethanol, oleic acid, isopropyl myristate, and isopropyl palmitate; saturated solutions of NAG in water and in phosphate buffer; as well as in a saturated DMSO solution and phosphate buffer (pH 5.5) containing ethanol at 2%, 5%, 10%, 25%, and 50% solutions.
The skins were hydrated in 0.1% aqueous sodium azide solution at room temperature for 48 hrs. Franz-cell diffusions experiments were carried out. In general the receptor cell was filled with 7.4 pH 0.1 M phosphate buffer and the donor cell filled with a solution or suspension. For the phosphate buffer (pH 5.5) containing ethanol at 2%, 5%, 10%, 25%, and 50% solutions in the donor phase, the receptor phase consisted of phosphate buffer (pH 5.5, 0.1 M). The receptor solution was maintained at 37° C. and stirred with a magnetic stirrer.
The snake skins were mounted between the receptor and donor cells. The surface exposed to diffusion was 2.54 cm^2 (diameter 1.8 cm) and the receptor cell volume was 6 cm^3. The donor cell was covered with plastic film. The system was allowed to equilibrate at 37° C. for two hours before each experiment. To the donor cells, 5 ml of the NAG-enhancer suspension or solution was added. Samples were taken at intervals over a 24-hour period, 200-μl samples of receptor solutions were taken and replaced with fresh buffer; experiments were conducted in triplicate. The amounts of NAG that permeated through the snakeskin were determined by HPAE-PAD.
Steady state flux (Jss) for NAG (mg/cm^2/h) was calculated from its increasing amount in the receptor medium (Bach et al., Eur. J. Pharm. Biopharm, 46:1-13 (1998)). NAG's permeability coefficient (kp) in cm/h was calculated from known physiochemical parameters, (Hadgraft et al., “Feasibility Assessment in Topical and Transdermal Delivery: Mathematical Models and In Vitro Studies,” in Transdermal Drug Delivery. 2nd Ed. Marcel Dekker, Inc., pages 1-23 (2003)). Lag time (tlag) was determined graphically from the cumulative amount of drug released per unit area (mg/cm^2) versus time plots. A square root of time (t^1/2) versus cumulative amount of drug released per unit area (mg/cm^2) was obtained to monitor NAG in vitro release rate (mg/cm^2), (Guidance for Industry: SUPAC-SS Semisolid Dosage Forms. Scale-up and Postapproval Changes Chemistry, Manufacturing, and Control; In Vitro Release Testing and In Vivo Bioequivalence Documentation. US Department of Health and Human Services, Food and Drug Administration, Center for. Drug Evaluation and Research, May 1997).

[7] = In-vitro membrane permeation of NAG from lecithin suspensions and pluronic organo-gel formulations across shed snakeskin; format: in vitro ADME, snake
Procedure: Twenty percent poloxamer 407 (PLURONIC F127; Polyethylene-Polypropylene Glycol) gels were made by standard methods e.g. dissolving the poloxamer into cold water under refrigeration for 24 hours to produce the pluronic gel phase. NAG was incorporated into the pluronic gel phase. The final formulations were prepared via the emulsification of the select organic phase with the pluronic gel phase using luer-lock connected syringes.
Shed snakeskins were used as the model membrane for these permeation studies using the NAG semi-solid gel formulations. The skins were hydrated in 0.1% aqueous sodium azide solution at room temperature for 48 hrs. Franz-cell diffusions experiments were carried out. In general the receptor cell was filled with a 7.4 pH 0.1 M phosphate buffer. The receptor solution was maintained at 37° C. and stirred with a magnetic stirrer. The snakeskins were mounted between the receptor and donor cells. The surface exposed to diffusion was 2.54 cm^2 (diameter 1.8 cm) and the receptor cell volume was 6 cm^3. The donor cell was covered with plastic film. The system was allowed to equilibrate at 37° C. for two hours before each experiment. The donor cells were filled with a 5 ml of the semisolid NAG pluronic-organo-gel formulation. Samples (N=3) were taken at intervals over a 48-hour period, 200-μl samples of receptor solutions were taken and replaced with fresh buffer; experiments were conducted in triplicate. The amounts of NAG that permeated through the snakeskin were determined by HPAE-PAD.
Steady state flux (Jss) for NAG (mg/cm^2/h) was calculated from its increasing amount in the receptor medium (Bach et al., Eur. J. Pharm. and Biopharm., 46:1-13 (1998)). NAG's permeability coefficient (kp) in cm/h was calculated from known physiochemical parameters (Hadgraft et al., “Feasibility Assessment in Topical and Transdermal Delivery: Mathematical Models and In Vitro Studies,” in Transdermal Drug Delivery, 2nd Ed. Marcel Dekker, Inc., pages 1-23 (2003)). Lag time (tlag) was determined graphically from the cumulative amount of drug released per unit area (mg/cm^2) versus time (h) plots. A square root of time (t^1/2) versus cumulative amount of drug released per unit area (mg/cm^2) was obtained to monitor NAG in vitro release rate (mg/cm^2) (Guidance for Industry: SUPAC-SS Semisolid Dosage Forms. Scale-up and Postapproval Changes Chemistry, Manufacturing, and Control; In Vitro Release Testing and In Vivo Bioequivalence Documentation. US Department of Health and Human Services, Food and Drug Administration, May 1997).

[8] = Solubility measurements of NAG; format: physicochemical
Procedure: The solutions were centrifuged for 5 min at 9000 rev/min and the supernatant filtered with cellulose acetate membrane filters (0.45 μm pore size) (Dionex, Sunnyvale Calif.). The NAG concentration in each filtrate was determined by HPAE-PAD after the appropriate dilution.

[9] = cited from earlier work; remark: listed apart in the source
[10] = phosphate buffer (pH 5.5) with 2% ethanol
[11] = phosphate buffer (pH 5.5) with 5% ethanol
[12] = phosphate buffer (pH 5.5) with 10% ethanol
[13] = phosphate buffer (pH 5.5) with 25% ethanol
[14] = phosphate buffer (pH 5.5) with 50% ethanol
[15] = saturated DMSO donor, pH 7.4 phosphate buffer receptor
[16] = lecithin-vitamin E (1:1) suspension

## N[C@H]1C(O)O[C@H](CO)[C@@H](O)[C@@H]1O (stereo partly shown) [glucosamine]
[1]; oral administration
  bioavailability: 12-13%
[1]; oral dose
  oral dose absorbed and excreted: approximately 87%
  oral dose reaching osteoarthritic joints: < 1%
  oral dose widely distributed in the body: < 13%

## CC(C)Cc1ccc(C(C)C(=O)O)cc1 (stereo not shown) [ibuprofen]
[2]
  transport across shed snake skin: transported

## CCC(NC(C)C)C(O)c1ccc(O)c2[nH]c(=O)ccc12 (stereo not shown) [procaterol]
[3]; pH 7.7
  octanol-water partition coefficient: −0.37

## CC(=O)N[C@H]1C(O)O[C@H](CO)[C@@H](O)[C@@H]1O (stereo partly drawn) [NAG, N-acetyl-D-glucosamine]
[4]
  transport across shed snake skin: highly transported
[4]; snake, 100 mg/ml, pH 7
  transport (receptor cell volume analyzed): over 50%
[5]
  partition coefficient n-hexane/pH 5.5 buffer: 0.252
  partition coefficient n-hexane/pH 6.0 buffer: 0.194
  partition coefficient n-hexane/pH 6.73 buffer: 0.092
  partition coefficient n-hexane/pH 7.4 buffer: 0.091
[6]; ethanol, oleic acid, isopropyl myristate and isopropyl palmitate suspensions
  NAG transport from suspensions of membrane permeability enhancers: Negligible
[6]; [10]
  In Vitro release rate: 286.03 μg/cm^2
  Jss: 112.61 mg/cm^2/h
[6]; [11]
  In Vitro release rate: 303.61 μg/cm^2
  Jss: 119.53 mg/cm^2/h
[6]; [12]
  In Vitro release rate: 537.49 μg/cm^2
  Jss: 211.61 mg/cm^2/h
[6]; [13]
  In Vitro release rate: 523.06 μg/cm^2
  Jss: 205.93 mg/cm^2/h
[6]; [14]
  In Vitro release rate: 198.02 μg/cm^2
  Jss: 77.96 mg/cm^2/h
[6]; [15]
  In Vitro release rate: 186.64 mg/cm^2
  Jss: 73.48 mg/cm^2/h
[6]; saturated DMSO solution
  lag time: no lag time
[6]; saturated DMSO solution, FIG. 13
  in vitro release rate: 73.48 μg/cm^2
[6]; snake, calculated from known physiochemical parameters, read-out: permeability coefficient kp (converted)
  Papp: 2030 nm/s
[6]; water or phosphate buffer solutions (pH 5.5, 6.0, 6.73, and 7.4; 0.1 M)
  permeation from aqueous solutions: No permeation
[7]; experiments not reported here
  transport in aqueous only vehicles: not transported
[7]; lecithin-isopropyl palmitate and vitamin E suspensions (100 mg/ml)
  NAG transport from suspensions: Negligible (below the limit of detection)
[7]; [16]
  Release rate: 13.71 μg/cm^2
  steady state flux Jss: 4.23 μg/cm^2/h
[7]; snake, pH 7.4, lecithin-vitamin E (1:1) suspension, read-out: permeability coefficient kp (converted)
  Papp: 13.9 nm/s
[8]; ethanol
  solubility: insignificantly soluble
[8]; phosphate buffer
  solubility: highly soluble
[9]
  pKa: 6.73
[3]; pH 7.4
  octanol-water partition coefficient: 0.017

## CN1CC[C@]23c4c5ccc(O)c4O[C@H]2C(=O)CC[C@@]3(O)[C@H]1C5 [oxymorphone]
[3]; pH 7.4
  octanol-water partition coefficient: 0.0

## Cl.N[C@H]1C(O)O[C@H](CO)[C@@H](O)[C@@H]1O (stereo partly shown) [glucosamine HCl, Glucosamine HCl, reference compound]
[4]
  transport across shed snake skin: not transported
